Test results taken from US8809500B2, “Complexes comprising mammalian raptor polypeptide and mammalian mTOR polypeptide” (Whitehead Institute For Biomedical Research, priority 2002, dated 2014).

Tests used:
[1] = target: T1, mTOR (Homo sapiens, UniProt P42345); assay: In vitro kinase assay for mTOR activity, endogenous mTOR immunoprecipitates, GST-S6K1 substrate; format: biochemical; details: for effect on mTOR kinase activity of mTOR immunoprecipitates from treated cells: cells treated for 10 minutes: 500 mM sucrose, 1 mM H2O2, 1 μm valinomycin A, 100 mM 2-deoxyglucose; for sensitivity of kinase activity of immunoprecipitates of endogenous mTOR: 20 μM inhibitor, added 10 minutes prior to kinase assay
T1 construct: the kinase activity of immunoprecipitates of endogenous mTOR depends on the presence of mTOR; endogenous in cells; host or cells: HEK293T
Description: FIG. 8A is a gel showing deprivation of amino acids, leucine, or glucose increases the stability of raptor-mTOR complex and decreases mTOR kinase activity, effects reversed by stimulation with leucine or glucose. HEK293T cells were incubated for 50 minutes in RPMI lacking amino acids (−amino acids), leucine (−leucine), or glucose (−glucose) or left untreated (control). Duplicate plates of cells deprived of leucine or glucose were stimulated for 10 minutes with 52 μg/ml leucine (−leu+leu) or 11 mM glucose (−gluc+gluc), respectively. Cells were lysed, anti-mTOR immunoprecipitates prepared, and mTOR kinase activity determined with in vitro kinase assays containing ATP-[γ-^32P] and a GST-S6K1 fusion protein (Burnett et al., PNAS 95:1432-1437 (1998)). Kinase reactions were resolved by SDS-PAGE, proteins transferred to PVDF, ^32P-incorporation into GST-S6K1 detected with autoradiography (third panel from top) and levels of mTOR (top panel) and raptor (middle panel) determined by immunoblotting. Western blot analyses of cell lysates used to prepare mTOR immunoprecipitates showing effects of nutrient conditions on the phosphorylation state and gel mobility of S6K1 in vivo (bottom two panels).
Kinase assays were performed in a volume of 10 μl at 30° C. for 20 min and contained ¼ the washed mTOR immunoprecipitates from 10 million HEK293T cells growing on a 10-cm dish, 200 ng of a GST-S6K1 fusion protein (amino acids 332-502), 1 μCi of [γ-^32P]ATP, 25 mM Hepes-KOH, pH 7.4, 50 mM KCl, 20% glycerol, 10 mM MgCl2, 4 mM MnCl2, 1 mM DTT, and 50 μM unlabeled ATP. When inhibitors were used they were added to the mTOR immunoprecipitates 10 minutes prior to the start of the kinase assay. Reactions were stopped by the addition of 5 μl of 2× sample buffer. After boiling the samples for 3 min, proteins were resolved by 8% SDS-PAGE, transferred to PVDF (poly(vinylidene difluoride)), and phosphorylated proteins visualized with autoradiography. The same blots were then used to determine the levels of mTOR and raptor by western analysis. Kinase assays using recombinant mTOR were performed as described in Burnett et al., PNAS, 95:1432-1437 (1998), except that they were washed as above with Buffer B.

[2] = target: T2, mTOR-raptor complex (Homo sapiens, UniProt P42345+P62942); assay: mTOR-raptor interaction: raptor co-precipitated in mTOR immunoprecipitates (western blot); format: cell-based; details: for effect on mTOR-raptor interaction (complex stability): cells treated for 10 minutes: 500 mM sucrose, 1 mM H2O2, 1 μm valinomycin A, 100 mM 2-deoxyglucose
T2 construct: endogenous in cells
Excerpt: Unless otherwise stated, for mTOR immunoprecipitates prepared in the absence of the cross-linker, cells were lysed in ice-cold Buffer B (Buffer A in which Triton X-100 is replaced by 0.3% CHAPS) and immunoprecipitates were washed four times in Buffer B and twice in Wash Buffer 2.

[3] = system: HEK293T cells; assay: Leucine-induced growth experiment (cell size after leucine re-addition); details: HEK293T deprived of leucine 24 hours, then leucine 52 μg/ml; size at 6 and 10 hours; rapamycin added with leucine
Description: Cells were transfected with the indicated siRNAs and the experiment performed as described herein. […] Shown are mean±S.D. from samples for each time point.
(§1) Cells were then harvested, diluted 1:10 or 1:20 and replated in fresh media. At 1, 2, and 3 days after replating, the cells were harvested by trypsinization in 2 ml media, diluted 1:20 with counting solution (Isoflow Sheath Fluid, Coulter Corp.) and cell diameters and volumes determined using a particle size counter (Coulter Multisizer II). Cells between 11 and 21 μm in diameter were used for analysis. For the leucine-induced growth experiment, the siRNA transfected cells were diluted into fresh media one day after transfection and, at 24 hours after dilution the cells were deproved of leucine for a further 24 hours. The cells were then provided with leucine (52 μg/ml) and cell diameters, volumes, and numbers determined as above at 6 and 10 hours after the leucine supplementation.
Leucine was then added to the media and cell size measured at 6 and 10 hours after leucine addition.

[4] = system: HEK293T cells; assay: Cell size determination in actively growing cells (Coulter Multisizer II); details: three days after siRNA transfection or 20 nM rapamycin for 48 hours
Description: Cell diameters and volumes were determined three days after transfection using a particle size counter (Coulter Multisizer II). […] Mean±S.D. values were obtained from the indicated numbers of independent trials in which at least 10,000 cells were analyzed per trial.
as §1

[5] = system: S6K1; assay: In vivo phosphorylation state of S6K1 (T389) in cell lysates by western blot; format: cell-based, human
[6] = insulin 200 nM for 25 minutes, HEK293T in serum-free media for 24 hours

**Q.** With `O=CC[C@@H](O)[C@H](O)[C@H](O)CO` [2-deoxyglucose] as the compound, how does the “effect on mTOR kinase activity of mTOR immunoprecipitates from treated cells” value (from here on “effect on mTOR kinase activity”) [1] read?
**A.** inhibited mTOR kinase activity

**Q.** And the “effect on mTOR-raptor interaction (complex stability)” value (“effect … (complex stability)” below) [2]?
**A.** stabilized the mTOR-raptor interaction

**Q.** Which “effect on mTOR kinase activity” value [1] does the source give for `OO` [H2O2] here?
**A.** inhibited the mTOR kinase

**Q.** And the “effect … (complex stability)” value [2]?
**A.** stabilized the interaction

**Q.** With `CNCCNS(=O)(=O)c1cccc2cnccc12` [H-8] as the compound, how does the “sensitivity of kinase activity of immunoprecipitates of endogenous mTOR” value [1] read?
**A.** not

**Q.** How did the “sensitivity of kinase activity of immunoprecipitates of endogenous mTOR” value [1] turn out when `COc1cccc(-c2cc(=O)c3ccccc3o2)c1N` [PD98059] was run?
**A.** not

**Q.** What does the source list for `CO[C@H]1C[C@@H]2CC[C@@H](C)[C@@](O)(O2)C(=O)C(=O)N2CCCC[C@H]2C(=O)O[C@H]([C@H](C)C[C@@H]2CC[C@@H](O)[C@H](OC)C2)CC(=O)[C@H](C)/C=C(\C)[C@@H](O)[C@@H](OC)C(=O)[C@H](C)C[C@H](C)/C=C/C=C/C=C/1C` [rapamycin]?
**A.** growth rate after leucine addition [3]: 1.02 % volume per hour; cell diameter, mean±S.D. [4]: 14.61±0.10 μm

**Q.** For `OC[C@H]1O[C@@](CO)(O[C@H]2O[C@H](CO)[C@@H](O)[C@H](O)[C@H]2O)[C@@H](O)[C@@H]1O` [sucrose], which “effect on mTOR kinase activity” value [1] is on record?
**A.** only a modest effect

**Q.** What about the “effect … (complex stability)” value [2] of the same compound?
**A.** only a modest effect

**Q.** What about the “effect on phosphorylation state of S6K1” value ([5]; cells treated for 10 minutes with 500 mM sucrose) of the same compound?
**A.** decreased the phosphorylation state of S6K1

**Q.** What does the source list for `CC(C)[C@@H]1NC(=O)[C@H](C)OC(=O)[C@@H](C(C)C)NC(=O)[C@@H](C(C)C)OC(=O)[C@H](C(C)C)NC(=O)[C@H](C)OC(=O)[C@@H](C(C)C)NC(=O)[C@@H](C(C)C)OC(=O)[C@H](C(C)C)NC(=O)[C@H](C)OC(=O)[C@@H](C(C)C)NC(=O)[C@@H](C(C)C)OC1=O` [valinomycin]?
**A.** effect on mTOR kinase activity of mTOR immunoprecipitates from treated cells [1]: inhibited mTOR kinase activity; effect on mTOR-raptor interaction (complex stability) [2]: stabilized the mTOR-raptor interaction

**Q.** For antimycin A, which “effect on mTOR kinase activity” value [1] is on record?
**A.** inhibited mTOR kinase activity

**Q.** What about the “effect … (complex stability)” value [2] of the same compound?
**A.** stabilized the mTOR-raptor interaction

**Q.** What does the source list for insulin?
**A.** effect on mTOR-raptor interaction [2, 6]: did not affect the raptor-mTOR interaction; effect on phosphorylation state of S6K1 [5, 6]: increased the phosphorylation state of S6K1
